{"source": "patent US11439639B2", "about": "“Pyrazine-containing compound” (CalciMedica, Inc., priority 2015, dated 2022)", "key": {"[1]": {"target": "Orai2/STIM1 channels (Homo sapiens, UniProt Q96SN7)", "sequence (Q96SN7 whole entry)": "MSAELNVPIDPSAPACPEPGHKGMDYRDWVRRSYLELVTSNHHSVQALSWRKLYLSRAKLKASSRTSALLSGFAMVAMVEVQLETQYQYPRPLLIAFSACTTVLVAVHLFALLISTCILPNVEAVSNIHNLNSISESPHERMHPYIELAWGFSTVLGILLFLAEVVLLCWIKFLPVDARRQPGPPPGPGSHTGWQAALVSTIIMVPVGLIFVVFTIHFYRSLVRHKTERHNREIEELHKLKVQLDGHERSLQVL", "sequence (Q13586 23-685 partner)": "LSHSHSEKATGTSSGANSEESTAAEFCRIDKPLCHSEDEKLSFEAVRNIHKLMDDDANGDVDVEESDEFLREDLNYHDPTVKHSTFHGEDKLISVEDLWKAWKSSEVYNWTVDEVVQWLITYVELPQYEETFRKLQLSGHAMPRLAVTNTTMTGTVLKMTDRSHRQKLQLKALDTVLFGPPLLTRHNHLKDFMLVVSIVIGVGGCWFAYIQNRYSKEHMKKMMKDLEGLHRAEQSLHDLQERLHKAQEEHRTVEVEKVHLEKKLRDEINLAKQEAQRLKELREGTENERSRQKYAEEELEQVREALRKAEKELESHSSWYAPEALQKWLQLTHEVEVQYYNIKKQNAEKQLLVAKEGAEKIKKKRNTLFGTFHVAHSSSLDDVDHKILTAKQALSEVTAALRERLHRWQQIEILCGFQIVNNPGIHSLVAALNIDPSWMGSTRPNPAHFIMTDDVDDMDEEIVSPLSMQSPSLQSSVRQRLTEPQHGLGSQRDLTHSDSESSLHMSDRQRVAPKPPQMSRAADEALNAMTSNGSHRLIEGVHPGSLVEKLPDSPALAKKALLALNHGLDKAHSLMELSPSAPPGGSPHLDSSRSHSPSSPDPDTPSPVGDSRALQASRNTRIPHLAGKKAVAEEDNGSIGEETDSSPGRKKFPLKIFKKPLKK", "experiment": "CRAC channel inhibition, Orai2/STIM1", "assay_type": "cell-based", "description": "(§1) Compound I and GSK-7975A were assayed for their inhibitory effect on CRAC channels. Channels comprising Orai1/STIM1 and Orai2/STIM1 were assayed."}, "[2]": {"test_system": "Mouse Acinar cells", "experiment": "TLCS-induced amylase release in mouse acinar cells", "assay_type": "cell-based", "conditions": "TLCS-treated mouse acinar cells, compared with EGTA", "description": "Amylase release from PACs has an ER calcium-dependent and a CRAC/cytosolic calcium-dependent component. The calcium dependent component is blocked by introduction of the divalent cation chelating agent EGTA. Mouse Acinar cells were treated with TLCS and either vehicle, EGTA, or a CRAC inhibitor such as Compound I, GSK-7975A or Compound II and monitored for Amylase release. It is observed that CRAC inhibitors mimicked EGTA in their effect on Amylase release."}, "[3]": {"test_system": "Mouse Pancreatic Acinar Cells (PACs)", "experiment": "TLCS-induced necrosis in mouse pancreatic acinar cells (propidium iodide uptake)", "assay_type": "cell-based", "description": "Mouse Pancreatic Acinar Cells (PACs) were extracted and incubated with either a carrier (control) or with natural bile acid TLCS (taurolithocholic acid 3-sulfate) in the absence or presence of GSK-7975A. Cells were contacted with propidium iodide to assay for cell necrosis. TLCS treatment to individual cells in vitro mimics the effect of a gall stone or other blockage in pancreatic secretion in vivo.\nMouse PACs were treated with either DMSO, DMSO plus 500 μM TLCS, or DMSO plus 500 μM TLCS plus 1 μM of the CRAC inhibitor Compound I. Cell necrosis was measured as % PI uptake. The CRAC inhibitor Compound I inhibits TLCS-induced necrosis in mouse PACs."}, "[4]": {"target": "Orai1/STIM1 channels (Homo sapiens, UniProt Q96D31)", "sequence (Q96D31 whole entry)": "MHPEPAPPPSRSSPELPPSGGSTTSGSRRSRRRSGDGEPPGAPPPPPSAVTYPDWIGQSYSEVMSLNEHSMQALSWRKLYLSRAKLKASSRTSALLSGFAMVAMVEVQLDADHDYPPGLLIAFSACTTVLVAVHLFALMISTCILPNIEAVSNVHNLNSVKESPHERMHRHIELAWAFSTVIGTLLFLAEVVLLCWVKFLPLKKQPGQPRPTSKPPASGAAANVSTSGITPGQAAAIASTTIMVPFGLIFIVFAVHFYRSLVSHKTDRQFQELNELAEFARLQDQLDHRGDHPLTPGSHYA", "sequence (Q13586 23-685 partner)": "as the sequence (Q13586 23-685 partner) above", "experiment": "CRAC channel inhibition, Orai1/STIM1", "assay_type": "cell-based", "conditions": "for IC50: Orai1/STIM1 channels", "description": "as §1"}, "[5]": {"test_system": "Human PACs", "experiment": "TLCS-induced necrosis in human pancreatic acinar cells (propidium iodide)", "assay_type": "cell-based", "conditions": "TLCS plus 10 μM GSK-7975A, TLCS alone about 45%, no TLCS about 23%", "description": "Human PACs were extracted and incubated with either a carrier (control) or with natural bile acid TLCS in the absence or presence of GSK-7975A. Cells were contacted with propidium iodide to assay for cell necrosis. TLCS treatment to individual cells in vitro mimics the effect of a gall stone or other blockage in pancreatic secretion in vivo."}, "[6]": {"test_system": "Mouse PACs", "experiment": "Rate of store-operated Calcium entry in mouse PACs, dose dependence", "assay_type": "cell-based", "parameters": "block of reuptake: dose or concentration left out as unconfirmed", "conditions": "for activity at 0.7 µM: Mus musculus, 700 nM of inhibitor, read-out: rate of store-operated Calcium entry, % of control levels", "description": "Mouse PACs were treated with CRAC inhibitors Compound I (FIG. 5A) or GSK-7975A (FIG. 5B) and monitored for their rate of Calcium uptake. […] Compound I blocks 100% of reuptake […]."}, "[7]": {"test_system": "Mouse acute pancreatitis models", "experiment": "Mouse acute pancreatitis models (Caerulein, TLCS, FAEE), pancreas histopathology", "assay_type": "in vivo", "conditions": "TLCS or FAEE model, doses giving tissue levels 10× or 40× the IC50, more pronounced at 40×", "from_the_text": "Mouse acute pancreatitis models were used to evaluate the effect of a CRAC inhibitor on pancreas histopathological progression. Caerulein is used to hyper-stimulate CCK receptors in the normal Calcium signaling pathway in the mouse pancreas. TLCS is used to induce acute pancreatitis through simulation of an excess of bile acid, as would be experienced in a gallstone induced acute pancreatitis. Fatty acid ethyl esters (FAEE) are used to simulate alcohol-induced acute pancreatitis. Mice were treated with the acute pancreatitis agent (Caerulin, FIG. 2A, TLCS, FIG. 2B or FAEE, FIG. 2C) alone or with the CRAC inhibitor GSK-7975A at either 10× or 40× the IC50 of the CRAC inhibitor."}, "[8]": {"test_system": "Mouse PACs", "experiment": "CCK-induced Ca2+ entry in mouse PACs", "assay_type": "cell-based", "conditions": "CCK 10 nM, then 1.8 mM Calcium; pretreatment with inhibitor", "description": "Mouse PACs were monitored for their Calcium uptake upon treatment with CCK at 10 nM. Cells were treated with CCK, and then provided with 1.8 mM Calcium and Calcium reuptake was monitored. […] Compound I pretreatment reduced Calcium re-uptake to near 0% of the control. GSK-7975A reduced calcium reuptake to about 30% of the control."}, "[9]": {"test_system": "caerulein-induced acute pancreatitis", "experiment": "Serum amylase and serum lipase in mouse caerulein model of acute pancreatitis", "assay_type": "in vivo", "conditions": "doses up to 20 mg/kg", "description": "Mice were either untreated (Normal), treated with CCK only (vehicle), or treated with CCK in combination with CsA or a CRAC inhibitor at the indicated dose. Serum amylase activity (FIG. 9A) and Serum Lipase activity (FIG. 9B) (IU/L) were measured."}, "[10]": {"test_system": "T cells in bulk human PBMCs", "experiment": "Cytokine release from anti-CD3/anti-CD28 stimulated human PBMCs (Luminex)", "assay_type": "cell-based", "conditions": "plate-bound anti-CD3/anti-CD28, 10% serum, 48 hrs", "description": "Compound I was tested for its inhibitory effect on a number of cytokines. Cytokines INF-gamma, IL-4, and IL-4 receptors of which are expressed on Acinar cells, cytokines IL-lbeta, IL-6, IL-10 and TNF-alpha, expressed in Acinar cells, and IL-2 and IL-7, cytokines important in T-cell function, were tested for an inhibitory effect of the CRAC inhibitor Compound I. T cells in bulk human PBMCs were stimulated with plate-bound anti-CD3/anti-CD28 in buffer +10% serum for 48 hrs. Released cytokines were measured by Luminex at Millipore."}, "[11]": {"test_system": "caerulein-induced pathology in the pancreas", "experiment": "Therapeutic/prophylactic mouse caerulein model, histopathology scores", "assay_type": "in vivo", "description": "Seven hourly i.p. injections of caerulein were given to induce pancreatitis, with animals sacrificed 8 hr after the 1st injection. Compound I was administered i.p. either 30 min before the 1st caerulein injection (prophylactic), or after the 3rd injection (therapeutic). CsA was administered p.o. on the same schedule as Compound I. The results are depicted in FIG. 10. Histopathology scores were measured in light of observation of Acinar cell degeneration, coagulation necrosis, and inflammation and edema measurements. Compound I produced a significant 35% reduction in caerulein-induced pathology in the pancreas when administered after the 3rd caerulein injection, consistent with efficacy in a therapeutic mode."}, "[12]": {"test_system": "Mouse PACs", "experiment": "TLCS-induced Ca2+ entry in mouse PACs (cytosolic calcium, F345/F380)", "assay_type": "cell-based", "conditions": "500 μM TLCS; Compound I at 1 or 3 μM", "description": "Mouse PACs were treated with 500 μM TLCS and either 0, 1μM or 3 μM of the CRAC inhibitor Compound I. Cytosolic Calcium levels (measured as F345/ F380 ratios) were measured for each treatment. TLCS releases Ca^2+ from intracellular stores (not shown), initiating SOCE. […] The results are depicted in FIG. 11."}, "[13]": {"test_system": "Mouse PACs", "experiment": "CPA-induced store-operated Ca2+ entry (calcium reuptake) in mouse PACs", "assay_type": "cell-based", "conditions": "CPA-treated mouse PACs, excess Calcium given 15 minutes after release", "description": "Mouse PACs were isolated and assayed for the effect of CRAC inhibitors on calcium re-uptake into the ER. Cells were treated with cyclopiazonic acid (CPA) alone (FIG. 4A) or in combination with the CRAC inhibitor Compound I (FIG. 4B) to activate CRAC channels to release Ca^2+. At 15 minutes following Calcium release, cells were provided with an excess of Calcium and monitored for Calcium uptake into the ER."}, "[14]": {"test_system": "Th17 cells", "experiment": "Cytokine production by Th1, Th2 and Th17 cells", "assay_type": "cell-based, murine", "conditions": "compared with IFN-γ and IL-4 production by Th1 and Th2 cells"}, "[15]": {"experiment": "Compound levels in the pancreas after i.p. injection", "assay_type": "in vivo, mouse", "conditions": "as a function of dose"}, "[16]": {"test_system": "Candid-1 JUNV", "assay_type": "cell-based, Junin virus", "conditions": "VeroE6 cells; 1, 10, 25, 50 μM Compound I"}, "[17]": {"test_system": "caerulein-induced pathology in the mouse pancreas", "experiment": "Mouse caerulein model of acute pancreatitis, prophylactic i.p. dosing, pancreas pathology", "assay_type": "in vivo", "conditions": "C57B6 mice", "description": "Mice were treated with a CRAC inhibitor or a vehicle prophylactically, and then challenged with CCK to trigger acute pancreatitis."}, "[18]": {"test_system": "murine T cells", "experiment": "Store-operated Ca2+ entry in murine T cells under Th1-, Th2-, Th17-polarizing conditions", "assay_type": "cell-based", "conditions": "1 μM Compound I, Th17 versus naive", "description": "Naive and stimulated murine T cells cultured under Th1-, Th2-, and Th17-polarizing conditions are treated with either DMSO, DMSO plus 500 μM TLCS, or DMSO plus 500 μM TLCS plus 1 μM of the CRAC inhibitor Compound I. Store-operated Ca^2+ entry (SOCE) is quantified in each treatment."}}}
{"smiles": "O=C(Nc1ccn(Cc2ccc(O)cc2C(F)(F)F)n1)c1c(F)cccc1F", "note": "[GSK-7975A, 2,6-Difluoro-N-(1-(4-hydroxy-2-(trifluoromethyl)benzyl)-1H-pyrazol-3-yl)benzamide, reference compound]", "values": [{"measurement": "IC50", "setting": "[1]", "result": 1450, "unit": "nM"}, {"measurement": "effect on Amylase release", "setting": "[2]", "result": "mimicked EGTA"}, {"measurement": "percent necrosis", "setting": "[3]; TLCS plus 10 μM GSK-7975A, TLCS alone about 45%, no TLCS about 10%", "result": "about 23%"}, {"measurement": "IC50", "setting": "[4]", "result": 398, "unit": "nM"}, {"measurement": "percent necrosis", "setting": "[5]", "result": "about 30%"}, {"measurement": "activity at 0.7 µM", "setting": "[6]", "result": 50, "unit": "%"}, {"measurement": "total histopathology score", "setting": "[7]", "result": "substantially reduces"}, {"measurement": "Calcium re-uptake, % of the control", "setting": "[8]", "result": "about 30%"}]}
{"smiles": "Cc1cccc(F)c1C(=O)Nc1cnc(-c2cc3c(cc2Cl)OC(F)(F)O3)cn1", "note": "[Compound I, N-(5-(6-chloro-2,2-difluorobenzo[d][1,3]dioxol-5-yl)pyrazin-2-yl)-2-fluoro-6-methylbenzamide]", "values": [{"measurement": "IC50", "setting": "[1]", "result": 895, "unit": "nM"}, {"measurement": "caerulein-induced serum amylase activity", "setting": "[9]", "result": "significant and dose-dependent reductions"}, {"measurement": "caerulein-induced serum lipase activity", "setting": "[9]", "result": "significant and dose-dependent reductions"}, {"measurement": "effect on Amylase release", "setting": "[2]", "result": "mimicked EGTA"}, {"measurement": "TLCS-induced necrosis (% PI uptake)", "setting": "[3]; 500 μM TLCS plus 1 μM Compound I", "result": "inhibits"}, {"measurement": "release of multiple cytokines", "setting": "[10]", "result": "potently inhibits"}, {"measurement": "potency on Orai1-type CRAC channels compared to GSK-7975A", "setting": "[4]; Compound I versus GSK-7975A", "result": "about 4 fold"}, {"measurement": "IC50", "setting": "[4]", "result": 119, "unit": "nM"}, {"measurement": "reduction in caerulein-induced pathology in the pancreas", "setting": "[11]; prophylactic: i.p. 30 min before the 1st caerulein injection", "result": 26, "unit": "%"}, {"measurement": "reduction in caerulein-induced pathology in the pancreas", "setting": "[11]; therapeutic: i.p. after the 3rd caerulein injection", "result": 35, "unit": "%"}, {"measurement": "TLCS-induced Ca2+ entry", "setting": "[12]", "result": "completely blocked"}, {"measurement": "reuptake of Calcium", "setting": "[13]", "result": "do not demonstrate reuptake of Calcium"}, {"measurement": "IL-17A production by Th17 cells", "setting": "[14]", "result": "more severely affected"}, {"measurement": "Compound I levels in the pancreas", "setting": "[15]", "result": "dose-proportional increase"}, {"measurement": "JUNV virus production (foci)", "setting": "[16]", "result": "statistically significant, dose-dependent reduction"}, {"measurement": "caerulein-induced pathology in the mouse pancreas", "setting": "[17]", "result": "significant and dose-dependent reductions"}, {"measurement": "Store-operated Ca2+ entry (SOCE)", "setting": "[18]", "result": "blocks SOCE stronger in differentiated Th17 cells"}, {"measurement": "block of reuptake", "setting": "[6]", "result": 100, "unit": "%"}, {"measurement": "activity at 0.7 µM", "setting": "[6]", "result": 50, "unit": "%"}, {"measurement": "Calcium re-uptake, % of the control", "setting": "[8]", "result": "~0", "unit": "%"}]}
{"smiles": "Cc1nc2cc(C)c(-c3cnc(NC(=O)c4c(F)ccc(F)c4F)s3)cc2o1", "note": "[Compound II, N-(5-(2,5-dimethylbenzo[d]oxazol-6-yl)thiazol-2-yl)-2,3,6-trifluorobenzamide]", "values": [{"measurement": "effect on Amylase release", "setting": "[2]", "result": "mimicked EGTA"}]}
